According to the supplement of paper PMC4862054:
Several values for one entry are separate records, joined by “and”; a condition that tells them apart may be missing. Equal entries are not always repeated.

Tests used:
Assay in all cases: normalised viability (% of control), CellTiter-Blue; higher = more viable cells (about 100 = DMSO control)
Settings in all cases: incubation time: 72 h
[1] = tested on: CAL-148
Protocol: (§1)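 DSRT, CellTiter-Blue viability, 72 h incubation. Signal is normalised to DMSO and benzethonium chloride controls. Value is the normalised response at dose 7.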

[2] = tested on: DU-4475
Protocol: as §1

[3] = tested on: CAL-51
Protocol: as §1

[4] = tested on: HDQ-P1
Protocol: as §1

[5] = tested on: CAL-85-1
Protocol: as §1

[6] = tested on: MDA-MB-453
Protocol: as §1

[7] = tested on: CAL-148; remark: listed apart in the source
Protocol: (§2)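 DSRT, CellTiter-Blue viability, 72 h incubation. Signal is normalised to DMSO and benzethonium chloride controls. Value is the normalised response at dose 8.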

[8] = tested on: DU-4475; remark: listed apart in the source
Protocol: as §2

[9] = tested on: CAL-51; remark: listed apart in the source
Protocol: as §2

[10] = tested on: HDQ-P1; remark: listed apart in the source
Protocol: as §2

[11] = tested on: CAL-85-1; remark: listed apart in the source
Protocol: as §2

[12] = tested on: MDA-MB-453; remark: listed apart in the source
Protocol: as §2

[13] = tested on: CAL-148; remark: listed apart in the source
Protocol: (§3)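 DSRT, CellTiter-Blue viability, 72 h incubation. Signal is normalised to DMSO and benzethonium chloride controls. Value is the normalised response at dose 6.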

[14] = tested on: DU-4475; remark: listed apart in the source
Protocol: as §3

[15] = tested on: CAL-51; remark: listed apart in the source
Protocol: as §3

[16] = tested on: HDQ-P1; remark: listed apart in the source
Protocol: as §3

[17] = tested on: CAL-85-1; remark: listed apart in the source
Protocol: as §3

[18] = tested on: MDA-MB-453; remark: listed apart in the source
Protocol: as §3

Structure (SMILES) | normalised viability [7] | normalised viability [8] [%] | normalised viability [9] | normalised viability [10] | normalised viability [11] | normalised viability [12] | other results
Cc1cc(Nc2cc(CN3CCOCC3)c3nc(C)c(Cc4ccc(Cl)cc4F)n3n2)n[nH]1 (1000 nM) |  |  |  |  |  |  | normalised viability [1]: 94.6%; normalised viability [2]: 94%; normalised viability [3]: 85.8%; normalised viability [4]: 72.5%; normalised viability [5]: 86.5%; normalised viability [6]: 53.3%
Cc1cc(Nc2cc(CN3CCOCC3)c3nc(C)c(Cc4ccc(Cl)cc4F)n3n2)n[nH]1 (3000 nM) | 76.1% | 52.4 | 38.2% | 35.5% | 59.4% | 60.7% | 
N#Cc1ccc(COC[C@H]2O[C@@H](n3c(NCc4ccc(Cl)c(Cl)c4)nc4c(N)ncnc43)[C@H](O)[C@@H]2O)cc1 (3000 nM) | 87.7% | 82.7 | 99.3% | 89.5% | 93% | 96% | 
COc1cc(OC2CCN(C)CC2)ccc1Nc1ncc2c(n1)n(C1CCCC1)c(=O)n2C [AZ 3146] (3000 nM) | 43.5% | 89 | 28% | 72.4% | 84.5% | 69.6% | 
CN(C)c1nc(N(C)C)nc(N(C)C)n1 [Altretamine] (3000 nM) | 97% | 115 | 114% | 99.9% | 97.8% | 108% | 
COC(=O)c1ccc2c(c1)NC(=O)/C2=C(\Nc1ccc(N(C)C(=O)CN2CCN(C)CC2)cc1)c1ccccc1 [BIBF 1120] (1000 nM) |  |  |  |  |  |  | normalised viability [1]: 99%; normalised viability [2]: 96.8%; normalised viability [3]: 68.2%; normalised viability [4]: 119%; normalised viability [5]: 111%; normalised viability [6]: 78.2%
COC(=O)c1ccc2c(c1)NC(=O)/C2=C(\Nc1ccc(N(C)C(=O)CN2CCN(C)CC2)cc1)c1ccccc1 [BIBF 1120] (3000 nM) | 94.8% | 97.1 | 62.7% | 91% | 91.1% | 59.8% | 
Nc1cc(C(F)(F)F)c(-c2cc(N3CCOCC3)nc(N3CCOCC3)n2)cn1 [BKM-120] (1000 nM) |  |  |  |  |  |  | normalised viability [1]: 83.7%; normalised viability [2]: 92.9%; normalised viability [3]: 56.9%; normalised viability [4]: 63.2%; normalised viability [5]: 58.3%; normalised viability [6]: 32.4%
Nc1cc(C(F)(F)F)c(-c2cc(N3CCOCC3)nc(N3CCOCC3)n2)cn1 [BKM-120] (3000 nM) | 18.8% | 38 | 10.4% | 27.7% | 27.3% | 11.9% | 
O=C(/C=C/c1cccc(S(=O)(=O)Nc2ccccc2)c1)NO [Belinostat] (3000 nM) | 3.16% | 1.84 | 9.77% | 39.1% | 16.4% | 2.18% | 
O=P1(N(CCCl)CCCl)NCCCO1 (centres undefined) [Cyclophosphamide] (1200 nM) |  |  |  |  |  |  | normalised viability [13]: 107%; normalised viability [14]: 96.2%; normalised viability [15]: 106%; normalised viability [16]: 81.5%; normalised viability [17]: 108%; normalised viability [18]: 112%
O=P1(N(CCCl)CCCl)NCCCO1 (centres undefined) [Cyclophosphamide] (12000 nM) | 97.2% | 104 | 105% | 110% | 93.7% | 109% | 
C=C1C[C@@H]2[C@H](CC[C@]3(C)C(=O)CC[C@@H]23)[C@@]2(C)C=CC(=O)C=C12 [Exemestane] (300 nM) |  |  |  |  |  |  | normalised viability [13]: 87%; normalised viability [14]: 81.7%; normalised viability [15]: 97.1%; normalised viability [16]: 78%; normalised viability [17]: 88.5%; normalised viability [18]: 90.8%
C=C1C[C@@H]2[C@H](CC[C@]3(C)C(=O)CC[C@@H]23)[C@@]2(C)C=CC(=O)C=C12 [Exemestane] (3000 nM) | 104% | 106 | 110% | 92.4% | 90.7% | 79% | 
COc1cc2ncnc(Nc3ccc(F)c(Cl)c3)c2cc1OCCCN1CCOCC1 [Gefitinib] (300 nM) |  |  |  |  |  |  | normalised viability [13]: 95.6% and 84.7%; normalised viability [14]: 83.8% and 84.4%; normalised viability [15]: 104% and 106%; normalised viability [16]: 64% and 66.2%; normalised viability [17]: 69.8% and 65.9%; normalised viability [18]: 98.2% and 83.2%
COc1cc2ncnc(Nc3ccc(F)c(Cl)c3)c2cc1OCCCN1CCOCC1 [Gefitinib] (3000 nM) | 76% and 67.1% | 101 | 96.4% and 96.1% | 77% and 86.2% | 55.9% and 54% | 79.3% and 69.5% | 
O=C(Nc1ccncc1)C(=O)c1cn(Cc2ccc(Cl)cc2)c2ccccc12 [Indibulin] (300 nM) |  |  |  |  |  |  | normalised viability [13]: 95.7%; normalised viability [14]: 115%; normalised viability [15]: 71.3%; normalised viability [16]: 30.7%; normalised viability [17]: 55.8%; normalised viability [18]: 41.4%
O=C(Nc1ccncc1)C(=O)c1cn(Cc2ccc(Cl)cc2)c2ccccc12 [Indibulin] (3000 nM) | 83.8% | 22.6 | 25.5% | 54.7% | 39.7% | 39.5% | 
NC(=O)c1ccc(I)c([N+](=O)[O-])c1 [Iniparib] (300 nM) |  |  |  |  |  |  | normalised viability [13]: 89.2%; normalised viability [14]: 84%; normalised viability [15]: 98.7%; normalised viability [16]: 87.2%; normalised viability [17]: 88.8%; normalised viability [18]: 95.2%
